Converted amounts (≈) assume the structure as drawn.
Legend:
Experiment in all cases: MIC microbroth dilution
Type in all cases: cell-based
[1] = system: A. baumannii GC 7692 TEM-1, AmpC; conditions: Acinetobacter baumannii, 18 h, read-out: Minimal Inhibitory Concentration
Experimental: (§1) The in vitro activities of the antibiotics were determined by the microbroth dilution method as recommended by the National Committee for Clinical Laboratory Standards (NCCLS). (NCCLS. 2000. Methods for Dilution Antimicrobial Susceptibility Tests for Bacteria That Grow Aerobically; Approved Standards: M7-A5, vol. 19. National Committee for Clinical Laboratory Standards, Villanova, Pa.). Mueller-Hinton II broth (MHBII) (BBL Cockeysville, Md.), was used for the testing procedure. […]. The plates were incubated for 18-22 hours at 35 C. in ambient air.

[2] = system: E. coli GC 2295 TEM-1 + AmpC; conditions: Escherichia coli, β-lactamase class A, C, MHBII, 35° C. 18 hr, read-out: Minimal Inhibitory Concentration
Experimental: as §1

[3] = system: E. coli LSU 80-8 GC 6265 TEM-1; conditions: Escherichia coli, read-out: MIC* (minimum inhibitory concentration)
Experimental: as §1

[4] = system: K. pneumoniae GC 2825 Act 1 + 3 additional; conditions: Klebsiella pneumoniae, β-lactamase class A, A (ESBL), C, MHBII, 35° C. 18 hr, read-out: Minimal Inhibitory Concentration
Experimental: as §1

[5] = system: A. baumannii GC 7685 TEM-1; conditions: Acinetobacter baumannii, GC7685TEM1, 18 h, read-out: Minimal Inhibitory Concentration
Experimental: as §1

[6] = system: K. pneumoniae GC 7645 TEM-30 TEM-1 KPC-2 SHV-12; conditions: Klebsiella pneumoniae, 18 h, read-out: Minimal Inhibitory Concentration
Experimental: as §1

E. coli GC 2300 (TEM-28) = conditions: Escherichia coli, β-lactamase class A (ESBL), MHBII, 35° C. 18 hr, read-out: Minimal Inhibitory Concentration
Experimental: as §1

[7] = system: S. typhimurium GC 4198 SHV-1 CTX-M-5; conditions: Salmonella enterica, 18 h, read-out: Minimal Inhibitory Concentration
Experimental: as §1

[8] = system: K. pneumoniae GC 7632 TEM-1 KPC-2, SHV-7, SHV-12; conditions: Klebsiella pneumoniae, β-lactamase class A, A (Cb'ase), A (ESBL), MHBII, 35° C. 18 hr, read-out: Minimal Inhibitory Concentration
Experimental: as §1

[9] = system: P. aeruginosa PT 9587 PTZ-R; conditions: Pseudomonas aeruginosa, PT9587PTZR; P. aeruginosa PT 9587, piperacillin-tazobactam-resistant; MHBII, 35° C. 18 hr; read-out: Minimal Inhibitory Concentration
Experimental: as §1

[10] = system: K. pneumoniae GC 7824 Fox 5; conditions: Klebsiella pneumoniae, GC7824FOX5, β-lactamase class C, MHBII, 35° C. 18 hr, read-out: Minimal Inhibitory Concentration
Experimental: as §1

[11] = system: P. aeruginosa ATCC 27853 AmpC-inducable; conditions: Pseudomonas aeruginosa, ATCC27853, β-lactamase class C, MHBII, 35° C. 18 hr, read-out: Minimal Inhibitory Concentration
Experimental: as §1

[12] = system: E. coli GC 2017 (TEM-10 + pl 6.3; 8.1); conditions: Escherichia coli, β-lactamase class A (ESBL), MHBII, 35° C. 18 hr, read-out: Minimal Inhibitory Concentration
Experimental: as §1

[13] = system: E. coli GAR 5929 TEM, OXA, Act-1 , CTX (By PCR only); conditions: Escherichia coli, β-lactamase class A, C, D, MHBII, 35° C. 18 hr, read-out: Minimal Inhibitory Concentration
Experimental: as §1

[14] = system: K. pn GC 6655 (TEM-1 + ACT-1); conditions: Klebsiella pneumoniae, β-lactamase class A, C, MHBII, 35° C. 18 hr, read-out: Minimal Inhibitory Concentration
Experimental: as §1

[15] = system: E. coli GC 2021 (TEM-10 + pl 6.3); conditions: Escherichia coli, 18 h, read-out: Minimal Inhibitory Concentration
Experimental: as §1

E. cloacae GC 1475 (P99) = conditions: Enterobacter cloacae, β-lactamase class C, MHBII, 35° C. 18 hr, read-out: Minimal Inhibitory Concentration
Experimental: as §1

[16] = system: P. aeruginosa GC 1764 (AmpC); conditions: Pseudomonas aeruginosa, β-lactamase class C, MHBII, 35° C. 18 hr, read-out: Minimal Inhibitory Concentration
Experimental: as §1

[17] = system: P. aeruginosa PT 8411 PTZ-R*; conditions: Pseudomonas aeruginosa; P. aeruginosa PT 8411, piperacillin-tazobactam-resistant; MHBII, 35° C. 18 hr; read-out: Minimal Inhibitory Concentration
Experimental: as §1

[18] = system: E. coli GC 1695 (TEM-1 + TEM-10); conditions: Escherichia coli, β-lactamase class A, A (ESBL), MHBII, 35° C. 18 hr, read-out: Minimal Inhibitory Concentration
Experimental: as §1

[19] = system: E. aerogenes GC 7039 TEM-4, Amp C inducable; conditions: Klebsiella aerogenes, β-lactamase class A (ESBL), MHBII, 35° C. 18 hr, read-out: Minimal Inhibitory Concentration
Experimental: as §1

[20] = system: K. pneumoniae GC 7821 DHA 1; conditions: Klebsiella pneumoniae, GC7821DHA1, β-lactamase class C, MHBII, 35° C. 18 hr, read-out: Minimal Inhibitory Concentration
Experimental: as §1

[21] = system: K. pn GC 6657 (TEM-1 + SHV-27); conditions: Klebsiella pneumoniae, β-lactamase class A, A (ESBL), MHBII, 35° C. 18 hr, read-out: Minimal Inhibitory Concentration
Experimental: as §1

With CO/N=C(\C(=O)N[C@@H]1C(=O)N2C(C(=O)[O-])=C(C[N+]3(C)CCCC3)CS[C@H]12)c1csc(N)n1 [Cefepime] the MIC [1] was greater than 16 µg/mL, the MIC [2] was 0.5 µg/mL (≈ 1.04 µM) and the MIC [3] was 0.06 µg/mL (≈ 0.125 µM). It also gave an MIC [4] of 2 µg/mL (≈ 4.16 µM), an MIC [5] greater than 16 µg/mL and an MIC [6] greater than 16 µg/mL. The MIC (E. coli GC 2300 (TEM-28)) was greater than 16 µg/mL, the MIC [7] was greater than 16 µg/mL and the MIC [8] was greater than 16 µg/mL. The MIC [9] was 4 µg/mL, the MIC [10] was 2 µg/mL (≈ 4.16 µM) and the MIC [11] was 2 µg/mL (≈ 4.16 µM). The MIC [12] was 16 µg/mL (≈ 33.3 µM), the MIC [13] was greater than 16 µg/mL and the MIC [14] was 1 µg/mL (≈ 2.08 µM). For the same compound, the MIC [15] was 8 µg/mL (≈ 16.6 µM), the MIC (E. cloacae GC 1475 (P99)) was 1 µg/mL (≈ 2.08 µM) and the MIC [16] was 8 µg/mL (≈ 16.6 µM). The MIC [17] was 16 µg/mL, the MIC [18] was 16 µg/mL (≈ 33.3 µM) and the MIC [19] was greater than 16 µg/mL. For the same compound, the MIC [20] was 0.06 µg/mL (≈ 0.125 µM) and the MIC [21] was 0.12 µg/mL (≈ 0.25 µM).

Source: US20070027130A1, “Tricyclic 6-alkylidene-penem beta-lactamase inhibitors and beta-lactam antibiotic combination: a broad spectrum antibiotic” (priority 2005, published 2007)
